# Assay results: US20220370553A1, “PREBIOTIC-INDUCED ANTI-TUMOR IMMUNITY” (Sanford Burnham Prebys Medical Discovery Institute, priority 2019, published 2022)
# Legend:
# A. muciniphila = assay: Anaerobic fecal cultures with 1% prebiotic, 16S rDNA quantification; type: cell-based, human; conditions: in most of the cultures
# Description: (§1) Fecal samples derived from 12 healthy human subjects were cultivated in the presence or absence of 1% prebiotic. 16S rDNA sequences corresponding to Bifidobacterium, Bacteroides and Akkermansia muciniphila were quantified. Data are representative of three independent experiments. Graphs show the mean±s.e.m. *P<0.05, **P<0.005, ***P<0.001, ****P<0.0001 by one-way ANOVA with Tukey's correction.
# (§2) Anaerobic fecal cultures. […] Anaerobic cultures (9% H2, 81% N2) were grown statically for 3-4 days at 37° C. and grown to approximate saturation.
# (§3) Chemically-defined medium (CDM). CDM contains 50 mM HEPES, 2.2 mM KH2PO4, 10 mM Na2HPO4, 60 mM NaHCO3, 4 mM of each amino acid, except leucine (15 mM), 10 mL ATCC, Trace Mineral Supplement. CDM contained nucleoside bases (100 mg/L), inosine, xanthine, adenine, guanine, cytosine, thymidine and uracil (400 mg/L). CDM contained choline (100 mg/L), ascorbic acid (500 mg/L), lipoic acid (2 mg/L), hemin (1.2 mg/L) and myo-inositol (400 mg/L). Resazurin (1 mg/L) was added to visually monitor dissolved oxygen. The pH of the media was adjusted to 7.4.
# (§4) Fecal samples derived from 12 healthy, vegetarian human subjects were cultivated in a chemically-defined medium the presence or absence of 1% prebiotic. Anaerobic cultures (9% H2, 81% N2) were grown statically for 3-4 days at 37° C. and grown to approximate saturation.
# Bifidobacterium spp. = assay: as above; type: cell-based, human; conditions: in two of these cultures
# Description: as §1, §2, §3, §4
# Yumm1.5 tumors = assay: Growth of Yumm1.5 melanoma tumors in prebiotic-fed mice; type: in vivo, C57BL/6 mice; conditions: mucin 3% in drinking water or inulin 15% w/w chow from 2 weeks prior to inoculation of 1×10^6 Yumm1.5 cells
# Description: FIG. 2B, Quantification of tumor-infiltrating effector (CD44hi) CD4+, CD8+ and CD45+ T cells from mice treated as in FIG. 2A (n=10). FIG. 2C, Quantification of tumor-infiltrating, IFN-g-producing CD4+ T cells from mice treated as in FIG. 2A (n=10). FIG. 2D, Quantification of tumor-infiltrating total DCs and subsets in mice treated as in FIG. 2A (n=10). FIG. 2E, MFI of MHC class I and MHC class II on DCs from the tumors of mice treated as in FIG. 2A (n=10). […] Graphs show the mean s.e.m. *P<0.05, **P<0.005, ***P<0.001,****P<0.0001 by two-way ANOVA with Tukey's correction (A) and by one-way ANOVA with Tukey's correction (B-E).
substance,measurement,setting,value
mucin,relative abundance of A. muciniphila,A. muciniphila,increased
same,Bifidobacterium spp.,Bifidobacterium spp.,not
same,melanoma tumor growth,Yumm1.5 tumors,attenuated
